Reference: patent US10001483B2, “Methods for the treatment of Kaposi's sarcoma or KSHV-induced lymphoma using immunomodulatory compounds, and uses of biomarkers” (Celgene Corporation, priority 2015, dated 2018)

Test system: KSHV-infected PEL lines (BC-3, BCBL-1, JSC-1, BC-1)
Test: Cell viability (Trypan Blue or CellTiter-Glo) in KSHV-infected PEL cell lines
Assay type: cell-based
Settings: among thalidomide, lenalidomide, pomalidomide, FIGS. 2A-2D
Procedure: In addition, the effect of the immunomodulatory drugs on KSHV down-regulation of MHC-1 during lytic activation was investigated by FACS analysis after pretreating the cells with Immunomodulatory drugs prior to lytic activation with butyrate.
Cell Viability: Cells were plated in triplicate at a density of 30,000-60,000 cells per well in 96-well plates. Cell lines were kept separate on different plates. Cell viability after indicated treatments were assayed by Trypan Blue or by adding the CellTiter-Glo reagent to measure the total ATP in cells cultured with serum-supplemented medium. For the latter, the corresponding luminescence values, correlated to the number of cells, were measured using a luminometer. The values for percentage of living cells were normalized to the control.
Cell Culture: The PEL lines JSC-1 (John Hopkins University, Baltimore, Md.), dually infected with Epstein-Barr virus (EBV) and HHV-8, and BC-3 (ATCC, Rockville, Md.) and BCBL-1(National Institute of Health AIDS Research and Reagent Program, Rockville, Md.), harboring KSHV only, and CA-46, an uninfected cancerous B-cell line, were grown in RPMI 1640 medium (Invitrogen, Carlsbad, Calif.) supplemented with 15% fetal-bovine serum (FBS) (Thermo Scientific, Rockford, Ill.) and Pen/Strep glutamine at 37° C. with 5% CO2.

## Nc1cccc2c1C(=O)N(C1CCC(=O)NC1=O)C2=O (stereo not shown) [pomalidomide, 4-amino-2-(2,6-dioxopiperidin-3-yl)isoindoline-1,3-dione]
  cell viability / PEL proliferation: most effective one at killing KSHV infected cells
